Assay results as given in patent US20170065564A1, “BIS-CYCLIC GUANIDINE COMPOUND COMPOSITIONS, METHODS OF USE AND TREATMENT THEREOF” (University of South Florida, priority 2014, published 2017).
In brackets after ≈: the same amount, converted by molar mass.

Columns and labels:
Pseudomonas aeruginosa = assay: MIC micro broth dilution assay; type: cell-based; conditions: for MIC: Pseudomonas aeruginosa; for concentration inhibiting 90% of isolates: panel of P. aeruginosa clinical isolates
Method: For this study we used a representative panel of multi-drug resistant clinical ESKAPE pathogen isolates (Supplemental Table S6).^42 43 3a, 44 45 Gram-positive organisms were grown in tryptic soy broth media (TSB), whilst Gram-negative organisms were grown in lysogeny Broth (LB), as described by us previously. ^43 MIC and MBC determination assays.
Broth cultures of ESKAPE strains were grown overnight before being diluted 1 in 1,000 in fresh media. Sterile 96-well plates were loaded with culture and compounds (in DMF) were added at decreasing concentrations to equal a total volume of 200 μl per well. Care was taken to not add more than 2.0% DMF to any well. Plates were then incubated at 37° C., and MICs determined after 24 hours by visual inspection for a lack of turbidity in wells. All assays were performed in triplicate with identical results obtained. For both the scaffold ranking and positional scanning samples, relative broad-spectrum activity was determined via stacked scores: […]

E. cloacae = type: cell-based, Enterobacter cloacae; conditions: 8 passages, concentration doubled each day
Method: ESKAPE pathogens were grown overnight in liquid media at 37° C. These cultures were then diluted 1:100 in fresh media, and seeded into a 96-well plate. Lead bis-cyclic guanidines or control agents were added to respective wells at half MIC concentrations. […] These were then grown overnight, and the procedure repeated for a total of eight days.

ESKAPE pathogens = assay: MIC micro broth dilution assay, statements and stacked scores over all ESKAPE pathogens; type: cell-based; conditions: letters E,S,K,A,P,E = ESKAPE pathogens, — = none
How it was run: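 Overnight cultures of multidrug-resistant clinical isolates, diluted 1 in 1,000 (Gram-positives in TSB, Gram-negatives in LB), were exposed to decreasing compound concentrations in DMF (≤2.0%) at 37° C. MIC was read visually as no turbidity after 24 hours, in triplicate. Broad-spectrum activity was ranked by stacked scores.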

[1] = tested on: Staphylococcus aureus (USA300 strain FPR3757); assay: Murine model of lethal peritonitis; type: in vivo, mice; conditions: 2× MIC, I.M., 1 h post-infection, six mice per group
Method: Using MRSA as a representative ESKAPE organism, we infected mice with 1×10^8 bacterial cells in 5% mucin via intraperitoneal injection. At 1 h post-infection, mice were then I.V. injected with either vancomycin (positive control), or I.M. with our front runner compounds.
Six mice per group were injected with 1×10^8 CFU ml^−1 of Staphylococcus aureus (USA300 strain FPR3757) in PBS containing 5% mucin. […] Mice were monitored twice daily for five days to assess mortality. The clinical endpoint of this study was when the mice reached a pre-moribund state. Characteristics of pre-moribund state include: hunched posture, rapid, shallow and/or labored breathing, ruffled fur, lethargy, failure to respond to stimuli, soiled anogenital area, paralysis, paresis, head tilt, circling, vocalizations, non-purposeful movements and/or were unable to eat or drink. Those mice reaching this state prior to the completion of the 5 day infection period were euthanized. The number of mice surviving between control and treatment groups was compared and analyzed for statistical significance using a log rank test.

human A549 cells = assay: Cytotoxicity assay (MTT); type: cell-based; conditions: for IC50: Homo sapiens, A549, MTT, 48 hours
Method: Cytotoxicity assays were performed using human A549 cells (adenocarcinomic human alveolar epithelial cells), as described by us previously.^44 Briefly, cells were cultured in F-12K Nutrient mixture (Kaighn's Modification) media containing L-glutamine, supplemented with 10% fetal bovine serum and 1% penicillin-streptomycin for 3 days at 37° and 5% CO2. Cells were then diluted to 1.0×10^5 ml^−1 using F-12K supplemented media, and added to 96 well tissue culture plates at a volume of 100 μl. Plates were incubated for 24 hours at 37° C. and 5% CO2, allowing the cells to adhere to the plastic. […] Plates were then incubated for 48 hours at 37° C. and 5% CO2. After 48 hours the media was removed, and new media added containing MTT (3-(4, 5-dimethylthiazol-2-yl)-2, 5-diphenyltetrazolium bromide), followed by incubation for four hours at 37° C. and 5% CO2. After 4 h, 50 μl of media was removed, replaced with DMSO and incubated for ten minutes at 37° C. in order to solubilize any formazan produced. A Biotek plate reader was used to measure the absorbance of formazan production at […], and IC50 values were determined for each of the five compounds. Front runners were solvated in 45% w/v (2-hydroxypropyl)-β-cyclodextrin in water for these studies; which was also used alone as a negative control. IC50 values were determined for each compound by comparison to vehicle only controls, to assess toxicity to human cells.

S. aureus = assay: Resistance serial passage assay; type: cell-based, Staphylococcus aureus; conditions: 8 passages, concentration doubled each day
Method: ESKAPE pathogens were grown overnight in liquid media at 37° C. These cultures were then diluted 1:100 in fresh media, and seeded into a 96-well plate. Lead bis-cyclic guanidines or control agents were added to respective wells at half MIC concentrations. Plates were then incubated for 24 hours at 37° C., with bacteria removed from these cultures on the following day, to inoculate fresh media (1:100 dilution) containing compounds at a 2-fold higher concentrations. These were then grown overnight, and the procedure repeated for a total of eight days. […] Each experiment was performed in triplicate, yielding identical results.

Acinetobacter baumannii = assay: MIC micro broth dilution assay; type: cell-based; conditions: for stacked score activity, 100/MIC, A: A. baumannii; for MIC: Acinetobacter baumannii
How it was run: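 Multidrug-resistant clinical ESKAPE isolates were grown overnight (Gram-positives in TSB, Gram-negatives in LB), diluted 1:1,000 and exposed to decreasing compound concentrations in DMF (≤2.0% DMF).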

SMILES	MIC (Pseudomonas aeruginosa; P. aeruginosa isolate 1414) [µM]	MIC (Pseudomonas aeruginosa; P. aeruginosa isolate 1415) [µM]	MIC (Pseudomonas aeruginosa; P. aeruginosa isolate 1416) [µM]	MIC (Pseudomonas aeruginosa; P. aeruginosa isolate 1417) [µM]	MIC (Pseudomonas aeruginosa; P. aeruginosa isolate 1418) [µM]	MIC (Pseudomonas aeruginosa; P. aeruginosa isolate 1419) [µM]	MIC (Pseudomonas aeruginosa; P. aeruginosa isolate 1420) [µM]	MIC (Pseudomonas aeruginosa; P. aeruginosa isolate 1421) [µM]	MIC (Pseudomonas aeruginosa; P. aeruginosa isolate 1422) [µM]	MIC (Pseudomonas aeruginosa; P. aeruginosa isolate 1423) [µM]	MIC (Pseudomonas aeruginosa; purified compound, Table 1) [µM]	concentration inhibiting 90% of isolates (Pseudomonas aeruginosa) [µM]	pathogens against which the compound showed activity at 5 ug/ml (ESKAPE pathogens)	pathogens against which the compound showed activity at 10 ug/ml (ESKAPE pathogens)	pathogens against which the compound showed activity at 25 ug/ml (ESKAPE pathogens)	survival of infected mice over 5 day infection period [1]	IC50 (human A549 cells) [µM]	increase in MIC after serial passage (S. aureus)	stacked score activity, 100/MIC, A (Acinetobacter baumannii)	MIC (Acinetobacter baumannii; A. baumannii isolate 1403) [µM]	other results
CCCC[C@H]1CN(CCCC[C@H]2CNC(=N)N2CCc2cccc(C(F)(F)F)c2)C(=N)N1CCCCC1CCCCC1 [Compound 2, (S)-4-butyl-3-(4-cyclohexylbutyl)-1-(4-((S)-2-imino-3-(3-(trifluoromethyl)phenethyl)imidazolidin-4-yl)butyl)imidazolidin-2-imine]	3 (≈ 1.77 µg/mL)	3 (≈ 1.77 µg/mL)	2 (≈ 1.18 µg/mL)	3 (≈ 1.77 µg/mL)	7 (≈ 4.14 µg/mL)	3 (≈ 1.77 µg/mL)	3 (≈ 1.77 µg/mL)	3 (≈ 1.77 µg/mL)	3 (≈ 1.77 µg/mL)	2 (≈ 1.18 µg/mL)	1.52 (≈ 0.898 µg/mL)	5	ESKAPE	ESKAPE	ESKAPE	only a single mouse succumbing to infection after the first day	125	two-fold	25	2 (≈ 1.18 µg/mL)	increase in MIC after serial passage (E. cloacae): 8 fold; pathogens against which the compound showed activity at 4 ug/ml (ESKAPE pathogens; dose 4 ug/ml): ESAP; MIC (Acinetobacter baumannii; A. baumannii isolate 1643): 2 µM (≈ 1.18 µg/mL); MIC (Acinetobacter baumannii; A. baumannii isolate 1644): 2 µM (≈ 1.18 µg/mL); MIC (Acinetobacter baumannii; A. baumannii isolate 1647): 2 µM (≈ 1.18 µg/mL); MIC (Acinetobacter baumannii; A. baumannii isolate 1648): 2 µM (≈ 1.18 µg/mL); MIC (Acinetobacter baumannii; A. baumannii isolate 1649): 2 µM (≈ 1.18 µg/mL); MIC (Acinetobacter baumannii; A. baumannii isolate 1650): 2 µM (≈ 1.18 µg/mL); MIC (Acinetobacter baumannii; A. baumannii isolate 1651): 2 µM (≈ 1.18 µg/mL); MIC (Acinetobacter baumannii; A. baumannii isolate 1653): 2 µM (≈ 1.18 µg/mL); MIC (Acinetobacter baumannii; A. baumannii isolate 1654): 2 µM (≈ 1.18 µg/mL); MIC (Acinetobacter baumannii; purified compound, Table 1): 1.52 µM (≈ 0.898 µg/mL)
CCCCCCCN1C(=N)N(CCCC[C@H]2CNC(=N)N2CCc2cccc(C(F)(F)F)c2)C[C@@H]1CCCC [Compound 1]	5 (≈ 2.75 µg/mL)	5 (≈ 2.75 µg/mL)	5 (≈ 2.75 µg/mL)	5 (≈ 2.75 µg/mL)	7 (≈ 3.86 µg/mL)	5 (≈ 2.75 µg/mL)	5 (≈ 2.75 µg/mL)	5 (≈ 2.75 µg/mL)	5 (≈ 2.75 µg/mL)	2 (≈ 1.1 µg/mL)	1.63 (≈ 0.898 µg/mL)	10	ESKAPE	ESKAPE	ESKAPE	all mice survived	164	two-fold	20	2 (≈ 1.1 µg/mL)	A549 cell recovery compared to vehicle only controls (human A549 cells; 225 μM (highest concentration tested)): around 40%; MIC (Acinetobacter baumannii; A. baumannii isolate 1643): 2 µM (≈ 1.1 µg/mL); MIC (Acinetobacter baumannii; A. baumannii isolate 1644): 2 µM (≈ 1.1 µg/mL); MIC (Acinetobacter baumannii; A. baumannii isolate 1647): 2 µM (≈ 1.1 µg/mL); MIC (Acinetobacter baumannii; A. baumannii isolate 1648): 2 µM (≈ 1.1 µg/mL); MIC (Acinetobacter baumannii; A. baumannii isolate 1649): 2 µM (≈ 1.1 µg/mL); MIC (Acinetobacter baumannii; A. baumannii isolate 1650): 2 µM (≈ 1.1 µg/mL); MIC (Acinetobacter baumannii; A. baumannii isolate 1651): 2 µM (≈ 1.1 µg/mL); MIC (Acinetobacter baumannii; A. baumannii isolate 1653): 2 µM (≈ 1.1 µg/mL); MIC (Acinetobacter baumannii; A. baumannii isolate 1654): 2 µM (≈ 1.1 µg/mL); MIC (Acinetobacter baumannii; purified compound, Table 1): 1.63 µM (≈ 0.898 µg/mL)
